Data: patent US20120136005A1, “E[…] THE TREATMENT OF ANXIETY” (MERZ PHARMA GmbH & CO. KGaA, priority 2009, published 2012)
Entries after “also recorded” stand apart in the source; their conditions may differ.

What was measured:
[1] = test system: unilaterally 6-OHDA-lesioned rats; assay: Turning behaviour induced by high dose of L-DOPA in 6-OHDA-lesioned rats; type: in vivo, Sprague Dawley rats; conditions: 0.3, 1.25 and 5 mg/kg, 30 min before the test; FIG. 3
Description: Male Sprague Dawley rats (Elevage Janvier, Le Genest Saint Isle, France) weighing between 220 and 250 g at the beginning of the study are used in these experiments. They are housed under a 12 h light/dark cycle with free access to standard pelleted food and tap water. Animal treatment and experimental procedures are approved by local ethical committees (Regierungspräsidium Darmstadt; Germany).
Dopamine-denervating lesions are performed on rats anaesthetized with a 5:1 mixture of ketamine and xylazine (1 ml/kg, i.p.). […] The animals' turning behaviour is recorded in an automated rotometer (TSE Rotameter System, TSE-Systems GmbH, Bad Homburg, Germany) over a 90 min period after the intraperitoneal (i.p.) injection of 2.5 mg/kg dexamphetamine sulphate dissolved in saline. […]
In order to evaluate the effect of eltoprazine on parkinsonian symptoms and its interaction with L-DOPA, rotational behaviour is evaluated. The numbers of ipsilateral and contralateral turns are recorded in an automated rotometer (TSE Rotameter System, TSE-Systems GmbH, Bad Homburg, Germany) over a period of 180 min. […]

Sprague-Dawley rats [2] = assay: Open field locomotor activity; type: in vivo
Description: (§1) For contextual fear conditioning, open field, fear potentiated startle and elevate plus maze, experimentally naive adult male Sprague-Dawley rats (250-300 g; Janvier, France) were housed in groups of four per cage. Colony room temperature and humidity were maintained respectively at 20±1° C. and 60±3%. Food and water were available ad libitum and the animals were kept under an alternating 12 h/12 h day-night cycle (lights on at 07.00) for at least 6 days before the experiments were started. All experiments were conducted during the light period of the day-night cycle. For the Vogel test, male experimentally naive Wistar rats (180-220 g, State Breeding Farm “Rappolovo”, St. Petersburg, Russia; N=109) were used. Each animal was used only once.
Eltoprazine hydrochloride was dissolved in sterile water. […]
Locomotor activity was measured in four perspex boxes (ENV-515-16, 43.2 cm×43.2 cm×30 cm) placed in a noise-proof chamber equipped with ventilator and a source of white light (5.6 W) placed 55 cm above floor. […] 4 arrays of 16 infrared photo beams placed 3 cm above the floor measured horizontal activity. […] The output from the counters was integrated and analysed on-line by an PC computer. […]
Total distance travelled during the 60 min was taken for statistical analysis. Data are analysed by one-way ANOVA followed by Dunnett's test.

Sprague-Dawley rats [3] = assay: Elevated plus maze; type: in vivo; conditions: doses of 0.3125 and 1.25 mg/kg s.c.; FIG. 6
Description: For contextual fear conditioning, open field, fear potentiated startle and elevate plus maze, experimentally naive adult male Sprague-Dawley rats (250-300 g; Janvier, France) were housed in groups of four per cage. Colony room temperature and humidity were maintained respectively at 20±1° C. and 60±3%. Food and water were available ad libitum and the animals were kept under an alternating 12 h/12 h day-night cycle (lights on at 07.00) for at least 6 days before the experiments were started. All experiments were conducted during the light period of the day-night cycle. […]
The elevated plus maze, made from black polypropylene, consists of two open arms (50.8 cm×10.2 cm surrounded by 1.3 cm walls) and two enclosed arms (50.8×10.2 cm and 40.6 cm high walls), which extended form central platform (10.2×10.2 cm). […] Breaks of photo beam are recorded and analysed automatically using an IBM-PC running MED-PC software version IV (Med Associates). […] During the following 5 min period the number of entries into closed and open arms as well as time spent in each type of arm is recorded. An arm entry is recorded when all four paws entering the arm. The obtained results are expressed as mean±S.E.M. percent entries or percent time spent in open arms. […]
Percent of time spent in open arm are taken for statistical analysis. Data are analysed by one-way ANOVA followed by Dunnett's test.

Sprague-Dawley rats [4] = assay: Fear potentiated startle; type: in vivo; conditions: acute treatment
Description: as §1
(§2) Eltoprazine hydrochloride was dissolved in sterile water. Administration of eltoprazine or vehicle (sterile water) was done s.c. (0.078 to 1.25 mg/kg) once, 60 minutes (30 min in the Vogel test) prior to start of the behavioural assay.

Wistar rats = assay: Shock-suppressed drinking (Vogel) test; type: in vivo; conditions: acute s.c., 30 min before the test; not statistically significant; FIG. 7
Description: as §1, §2
The apparatus consisted of 4 identical standard operant chambers with grid metal floor. Water bottle spout was protruded through the wall and connected to a shock device. […] Latency to start drinking was registered, and total drinking time and the licks number were recorded during 5 min timed from the first lick of the bottle spout. […]

5-HT1b receptor = 5-HT1b receptor (Rattus norvegicus, UniProt P28564); conditions: Schipper et al. 1990; cited from earlier work
Chain of 5-HT1b receptor (P28564 whole entry): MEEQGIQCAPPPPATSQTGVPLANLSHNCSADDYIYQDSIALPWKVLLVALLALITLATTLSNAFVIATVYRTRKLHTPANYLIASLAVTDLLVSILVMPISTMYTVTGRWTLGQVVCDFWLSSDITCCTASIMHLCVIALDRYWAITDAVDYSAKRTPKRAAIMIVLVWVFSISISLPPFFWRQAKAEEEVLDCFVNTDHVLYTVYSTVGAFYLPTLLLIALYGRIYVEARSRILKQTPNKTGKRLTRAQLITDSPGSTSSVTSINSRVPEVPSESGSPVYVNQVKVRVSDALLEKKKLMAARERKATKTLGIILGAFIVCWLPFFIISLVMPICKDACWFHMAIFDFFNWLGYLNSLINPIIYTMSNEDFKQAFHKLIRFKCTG

SMILES: c1cc2c(c(N3CCNCC3)c1)OCCO2 [eltoprazine, 1-(2,3-dihydro-1,4-benzodioxin-5-yl)piperazine]
- interference with the antiparkinsonian effect of L-DOPA (turning behaviour) [1]: does not interfere
- total distance travelled in the open field (Sprague-Dawley rats [2]; 1.25 mg/kg s.c.): significantly increased
- locomotor activity in the open field at anxiolytic doses (Sprague-Dawley rats [2]; acute s.c., 60 min before the test, FIG. 5): not related to non-specific increase in locomotor activation
- time spent in the open arms of the elevated plus maze (Sprague-Dawley rats [3]): reduced the time spent in the open arms; also recorded: anxiogenic-like effect
- effect in fear potentiated startle, first experiment (Sprague-Dawley rats [4]): anxiolytic-like effect
- effect in fear potentiated startle, repetition study (Sprague-Dawley rats [4]; same doses): strong trend
- number of accepted punishments (shocks received) in the Vogel test (Wistar rats): tendency to increase; also recorded: trend for anxiolytic activity
- effect on 5-HT1b receptor (5-HT1b receptor): agonistic effect
